Publication PMC6201879, “N-substituted phenylbenzamides of the niclosamide chemotype attenuate obesity related changes in high fat diet fed mice” (PLoS ONE, 2018)
pIC50: −log10 of the molar value. Where “and” joins values, the source holds several entries; their conditions need not be identical. Identical values can stand only once. Entries after “also recorded” stand apart in the source; their conditions may differ. Like-named read-outs stand apart in the source and are kept apart here.

Legend:
PH5CH8 liver cells = assay: High-throughput hepatic de novo lipogenesis (DNL) assay, high content imaging of steatotic phenotype; assay type: cell-based, human; conditions: for pIC50: read-out: IC50; for IC50: PH5CH8 liver cells, 10-point dose response between 1μM and 1.9nM, read-out: IC50 (uM), inhibition of steatotic phenotype in DNL assay
[1] = system: Salmonella typhimurium TA100; conditions: Positive Control chemical; concentration not given; without S9
[2] = system: Salmonella typhimurium TA1535; conditions: Positive Control chemical; concentration not given; without S9
[3] = system: Salmonella typhimurium TA1537; conditions: Positive Control chemical; concentration not given; without S9
[4] = system: HEK293 cells stably transduced with the human OCT3 transporter; assay: Cellular oxygen consumption rate (OCR), MitoXpress Xtra; assay type: cell-based; conditions: HEK293 cells expressing human OCT3; for change in respiration / oxygen consumption rate (OCR): compared to DMSO control, 2 hours; for concentration dependence of OCR change: four concentrations
Description: Oxygen consumption rate experiments were performed by ZenBio, Inc (RTP, NC). HEK293 cells stably transduced with the human OCT3 transporter were plated in black-walled microclear plates (Greiner-BioOne) at 60,000 cells per well in growth medium. Cells were incubated overnight to allow attachment before growth medium was removed and replaced with 150μL of assay medium containing compound dilutions. Four concentrations of each compound were prepared and transferred to the empty wells. Control wells contained assay medium only or assay medium containing […] (FCCP) at 1μM. Ten μL of MitoXpress Xtra reagent was added to each test well and 100μL of pre-warmed mineral oil was overlaid in each well to create a seal. The plates were immediately read on a FLUOstar Omega (BMG) using dual read Time Resolved Fluorescence (TR-F) for 2 hours, with measurements taken every 2 minutes using 340nm and 650nm as excitation and emission wavelengths respectively. For lifetime analysis, two measurements per well were taken: 1) delay of 30μs, with a window of 30μs; and 2) delay of 70μs with a window of 30μs. Background TRF values were subtracted from all readings. A ratiometric analysis was performed to determine changes in the Lifetime fluorescence signal: Lifetime (μs)[T] = (D2-D1)/ln(W1/W2), where D is delay; W is fluorescence window value at each time point. Lifetime slopes were calculated using each Lifetime measurement over time. Data are presented as mean ± standard error (SE). The differences between the control (DMSO) and compound treated wells were analyzed using the Student’s t-test. A value of p≤0.05 was considered statistically significant. […]

[5] = system: Phosphorylated AMPK (Thr-172); assay: High-throughput phosphorylated AMPK (Thr-172) TR-FRET assay in HepG2 cells; assay type: cell-based, human; conditions: HepG2 TR-FRET dose response between 0.625 and 10 μM, 4 hours; also Western blot
Description: Phosphorylated AMPK (Thr-172) TR-FRET Assay Kit was purchased from CisBio (Bedford MA). HepG2 [HB-8065] cells were trypsinized, harvested and counted using Countess II FL automated cell counter (Thermo Fisher Scientific). Cells were then seeded in Poly-D-Lysine coated 96-well black optical plates at a concentration of 10,000 cells per well in 50μL growth medium. After 24-hours, the media was removed and replaced with 50μL of fresh growth media containing compounds. Five concentrations of each compound were prepared, ranging from 10 to 0.625 μM and applied to columns 2–11 of the cell plate. Control wells contained DMSO (column 1-minimum response control) or 500199 (column 12-maximum response control). The final DMSO concentration was 0.45%. Cells were cultured for 4 hours before cells were lysed in 50μL of lysis buffer for 30 minutes at room temperature according to assays protocol. Following lysis, 16μL of lysate was transferred to white 384 well small volume assay plate and 4μL of antibody dyes were added per assay protocol.
Following overnight incubation, quantitation was performed on a PHERAstar (BMG), using the HTRF protocol with an excitation wavelength of 337nm and emission wavelengths of 665nm and 620nm. The ratio between emission spectra (665/620) was assessed for each well individually and averaged for triplicate samples. Data are presented as mean ratio ± SE. The differences between the control (DMSO) and the compound treated wells were analyzed using two-way ANOVA and Dunnett’s post hoc test. A value of p<0.05 was considered to be significant.
Fig 5 Validation of AMPK pathway activation by phenylbenzamide derivatives in HepG2 cells. A) Cells were seeded at 10,000 cells per well 24 hours prior to treating cells with indicated concentration of compound or DMSO (CTL) for 4 hours. 16μL of cell lysate was incubated with HTRF phospho-AMPK detection reagents and fluorescence emission read at 665nm and 620nm using a PHERAstar platereader. The mean and standard deviation of the HTRF Ratio from three replicate wells is shown. The unstimulated (DMSO) and positive controls lysates are shown in green and red respectively.

[6] = system: phospho-AMPK Thr-172 (p-AMPK); assay: Western blot of phospho-AMPK Thr-172 in HEK293T cells; assay type: cell-based, human; conditions: 1 and 10μM, negatives re-screened at 5 and 20 μM, 3 hours
Description: AMPK is a metabolic sensor that maintains cellular energy supply. As validation of these changes in lipid metabolism and cellular respiration we evaluated phospho-AMPK Thr-172 (p-AMPK) levels by Western blot in HEK293 cells treated with the phenylbenzamide derivatives. Compounds were screened at 1 and 10μM using the known uncouplers niclosamide and FCCP as positive controls (Fig 4A). […] We concluded that compounds that had little effect on oxygen consumption rates also had little effect on phosphorylation of AMPK.

[7] = Metabolic stability in human liver microsomes; assay type: in vitro ADME
Description: (§1) Three experiments were performed with 1) 0.5mg/ml microsomes and 1mM NADPH, 2) 0.5mg/ml microsomes without NADPH and 3) 0.5mg/ml heat inactivated microsomes without NADPH in 100mM phosphate buffer, containing 5mM magnesium chloride. […] At the indicated time points, 50μl samples were removed and stopped by addition of 4 volumes of cold acetonitrile with internal standards, 100nM alprazolam, 200nM labetalol and 2μM ketoprofen. The samples were centrifuged at 3,220 g for 40 minutes and aliquots of 100μl were subsequently diluted with 100μl of ultra-pure water and analyzed by LC/MS/MS using a (Shimadzu corporation) LC system coupled to a Shimadzu Triple Quad 5500 mass spectrometer with an ESI interface. The LC system used a Waters XSelect HSS T3 C18, 2.5μm, 2.1 x 50 mm column eluted with one of two methods using mobile phases A (water, 0.1% formic acid) and B (acetonitrile, 0.1% formic acid). […] The Shimadzu Triple Quad 5500 MS was operated with the following parameters: Ion source: Turbo spray; Ionization mode: ESI; Scan type: MRM; Collision gas: 10 L/min; Curtain gas: 30 L/min; Nebulize gas: 50 L/min; Auxiliary gas: 50 L/min; Temperature: 500°C; Ionspray voltage: +5500 V (positive MRM). All experiments were performed in duplicate. Data were analyzed using Microsoft excel, and peak areas were determined from extracted ion chromatograms.

[8] = Metabolic stability in mouse liver microsomes; assay type: in vitro ADME; conditions: 60 min
Description: as §1

[9] = system: Salmonella typhimurium TA98; assay: Ames assay, strain TA98; conditions: Positive Control chemical; concentration not given; without S9
[10] = S1 Table, SAR for N-Substituted Phenylbenzamides
[11] = Homo sapiens, S1 Table, SAR for N-Substituted Phenylbenzamides
[12] = Homo sapiens, S1 Table. SAR for N-Substituted Phenylbenzamides
[13] = S1 Table. SAR for N-Substituted Phenylbenzamides
[14] = 0.5mg/ml microsomes and 1mM NADPH
[15] = 0.5mg/ml microsomes without NADPH
[16] = heat inactivated microsomes without NADPH

Compound: COC(=O)c1ccc(NC(=O)c2cc(C)ccc2O)c(Cl)c1 [Compound 500828, Methyl 3-chloro-4-[(2-hydroxy-5-methylbenzene)amido]benzoate]
- Active/Inactive (PH5CH8 liver cells; [10]): Active
- pIC50 (PH5CH8 liver cells; [10]): 5.77

Compound: [N-]=[N+]=[N-].[Na+] [SA, Sodium Azide, reference compound]
- Mean Revertant Colony Counts TA-100 S9- [1]: 133.7 and 120.0
- Mean Revertant Colony Counts TA-1535 S9- [2]: 103.3

Compound: COc1ccc2nc3cc(Cl)ccc3c(NCCCNCCCl)c2c1 [ICR-191, reference compound]
- Mean Revertant Colony Counts TA-1537 S9- [3]: 72.3 and 73.0

Compound: COC(=O)c1ccc(NC(=O)c2cc(C(F)(F)F)ccc2O)c(C)c1 [Compound 600655, Methyl 4-(2-hydroxy-5-[trifluoromethyl]benzamido)-3-methylbenzoate]
- IC50 (PH5CH8 liver cells; Homo sapiens): 0.03 µM
- pIC50 (PH5CH8 liver cells; [11]): 9.60
- Active/Inactive (PH5CH8 liver cells; [10]): Active
- change in respiration / oxygen consumption rate (OCR) [4]: significant changes
- concentration dependence of OCR change [4]: dose dependent increase in OCR
- phosphorylation of AMPK (Figs 5 and 4D) [5]: stimulated phosphorylation of AMPK

Compound: N#CC(C#N)=NNc1ccc(OC(F)(F)F)cc1 [FCCP, carbonyl cyanide-p-trifluoromethoxyphenylhydrazone, reference compound]
- change in respiration / oxygen consumption rate (OCR) [4]: increased OCR

Compound: COc1ccc(O)c(C(=O)Nc2ccc(C(=O)O)cc2C)c1 [Compound 600657, 4-(2-Hydroxy-5-methoxybenzamido)-3-methylbenzoic Acid]
- Active/Inactive (PH5CH8 liver cells; [10]): Active
- change in respiration / oxygen consumption rate (OCR) [4]: no change in respiration; also recorded: did not appear to stimulate phosphorylation of AMPK or increase oxygen consumption rate
- phosphorylation of AMPK (p-AMPK Thr-172) by Western blot [6]: no detectable changes in pAMPK levels

Compound: COC(=O)c1ccc(NC(=O)c2cc(Cl)ccc2O)c(Cl)c1 [Compound 500189, Methyl 3-chloro-4-[(5-chloro-2-hydroxybenzene)amido]benzoate]
- Active/Inactive (PH5CH8 liver cells; [10]): Inactive

Compound: O=C(Nc1ccc(Br)cc1Cl)c1cc(Cl)ccc1O [Compound 500832, N-(4-Bromo-2-chlorophenyl)-5-chloro-2-hydroxybenzamide]
- IC50 (PH5CH8 liver cells; Homo sapiens): 0.08 µM
- pIC50 (PH5CH8 liver cells; [12]): 7.69
- Active/Inactive (PH5CH8 liver cells; [13]): Active
- change in respiration / oxygen consumption rate (OCR) [4]: significant changes
- concentration dependence of OCR change [4]: only significantly elevated at 1μM
- phosphorylation of AMPK (Figs 5 and 4D) [5]: stimulated phosphorylation of AMPK

Compound: COC(=O)c1ccc(NC(=O)c2cccc(C(C)(C)C)c2O)c(Cl)c1 [Compound 600489, Methyl 4-(3-tert-butyl-2-hydroxybenzamido)-3-chlorobenzoate]
- IC50 (PH5CH8 liver cells; Homo sapiens): 0.01 µM
- pIC50 (PH5CH8 liver cells; [11]): 7.85
- Active/Inactive (PH5CH8 liver cells; [10]): Active
- change in respiration / oxygen consumption rate (OCR) [4]: no change in respiration; also recorded: no effect on oxygen consumption rate
- phosphorylation of AMPK (p-AMPK Thr-172) by Western blot [6]: stimulated phosphorylation of AMPK only at the highest concentration
- Remaining Percentage of 60 min (%), Human, Tested Sample [7, 14]: 3.1%
- Remaining Percentage of 60 min (%), Human, Negative Control [7, 15]: 3.8%
- microsomal stability ([7]; HLM and MLM, 60 min): completely degraded
- Remaining Percentage of 60 min (%), Human, Heat-inactivated Control [7, 16]: 66.6%
- Remaining Percentage of 60 min (%), Mouse, Tested Sample [8, 14]: 2.7%
- Remaining Percentage of 60 min (%), Mouse, Negative Control [8, 15]: 4.1%
- Remaining Percentage of 60 min (%), Mouse, Heat-inactivated Control [8, 16]: 57.6%

Compound: N#Cc1ccc(NC(=O)c2cc(Cl)ccc2O)c(Cl)c1 [Compound 500833, 5-Chloro-N-(2-chloro-4-cyanophenyl)-2-hydroxybenzamide]
- IC50 (PH5CH8 liver cells; Homo sapiens): 0.04 µM
- pIC50 (PH5CH8 liver cells; [12]): 7.37
- Active/Inactive (PH5CH8 liver cells; [13]): Active
- change in respiration / oxygen consumption rate (OCR) [4]: significant changes
- concentration dependence of OCR change [4]: only significantly elevated at 1μM
- phosphorylation of AMPK (Figs 5 and 4D) [5]: stimulated phosphorylation of AMPK

Compound: COC(=O)c1ccc(NC(=O)c2cc(C(F)(F)F)ccc2O)c(Cl)c1 [Compound 500844, Methyl 3-chloro-4-{[2-hydroxy-5-(trifluoromethyl)benzene]amido}benzoate]
- Active/Inactive (PH5CH8 liver cells; [10]): Active
- pIC50 (PH5CH8 liver cells; [10]): 7.15

Compound: CCC/C=C/C/C=C/C=C/C=N/NN=O [Triacsin C, reference compound]
- reduced steatosis (steatotic phenotype in DNL assay) (PH5CH8 liver cells; PH5CH8, assay validation): 92 ± 19%

Compound: O=[N+]([O-])c1ccc2c(c1)Cc1ccccc1-2 [Compound 2-NF, 2-nitrofluorene, reference compound]
- Mean Revertant Colony Counts TA98 S9- [9]: 210.0 and 258.7

Compound: COC(=O)c1ccc(NC(=O)c2cc(C(F)(F)F)ccc2O)c(Br)c1 [Compound 600653, Methyl 4-(2-hydroxy-5-[trifluoromethyl]benzamido)-3-bromobenzoate]
- IC50 (PH5CH8 liver cells; Homo sapiens): 0.27 µM
- pIC50 (PH5CH8 liver cells; [11]): 6.57
- Active/Inactive (PH5CH8 liver cells; [10]): Active
- change in respiration / oxygen consumption rate (OCR) [4]: significant changes
- concentration dependence of OCR change [4]: dose dependent increase in OCR
- phosphorylation of AMPK (Figs 5 and 4D) [5]: stimulated phosphorylation of AMPK
